Assay results reported in US11305017B2, “Anti-fugetactic agent and anti-cancer agent combination therapy and compositions for the treatment of cancer” (The General Hospital Corporation, priority 2015, dated 2022).

Tested on: tumor that expresses high levels of CXCL12
Test: Tumor growth in mice bearing a subcutaneous CXCL12-expressing tumor

Row | Compound | Delay in tumor growth, co-treatment versus TAX alone (AMD3100 subcutaneous once a day for 5 days, then 12.5 mg/kg TAX intraperitoneal one to three days after the final dose) | Tumor growth (12.5 mg/kg paclitaxel (TAX) intraperitoneal, 18 hours prior to assay, mice not administered AMD3100)
1 | c1cc(CN2CCCNCCNCCCNCC2)ccc1CN1CCCNCCNCCCNCC1 [AMD3100] | synergistic effect | 
2 | CC(=O)O[C@H]1C(=O)[C@@]2(C)[C@H]([C@H](OC(=O)c3ccccc3)[C@]3(O)C[C@H](OC(=O)[C@H](O)[C@@H](NC(=O)c4ccccc4)c4ccccc4)C(C)=C1C3(C)C)[C@]1(OC(C)=O)CO[C@@H]1C[C@@H]2O [TAX, paclitaxel] |  | delayed by TAX treatment, but resumes soon after the treatment is discontinued
